Structures can show the parent of a compound that is named as a salt.

The experiment deals with T1, hCaSR (Calcium sensing receptor) in stably transfected HEK293 cells (Homo sapiens, UniProt P41180).
T1 construct: expressed in transfected cells; host or cells: HEK293 (stably transfected)
T1 sequence (P41180 20-1078): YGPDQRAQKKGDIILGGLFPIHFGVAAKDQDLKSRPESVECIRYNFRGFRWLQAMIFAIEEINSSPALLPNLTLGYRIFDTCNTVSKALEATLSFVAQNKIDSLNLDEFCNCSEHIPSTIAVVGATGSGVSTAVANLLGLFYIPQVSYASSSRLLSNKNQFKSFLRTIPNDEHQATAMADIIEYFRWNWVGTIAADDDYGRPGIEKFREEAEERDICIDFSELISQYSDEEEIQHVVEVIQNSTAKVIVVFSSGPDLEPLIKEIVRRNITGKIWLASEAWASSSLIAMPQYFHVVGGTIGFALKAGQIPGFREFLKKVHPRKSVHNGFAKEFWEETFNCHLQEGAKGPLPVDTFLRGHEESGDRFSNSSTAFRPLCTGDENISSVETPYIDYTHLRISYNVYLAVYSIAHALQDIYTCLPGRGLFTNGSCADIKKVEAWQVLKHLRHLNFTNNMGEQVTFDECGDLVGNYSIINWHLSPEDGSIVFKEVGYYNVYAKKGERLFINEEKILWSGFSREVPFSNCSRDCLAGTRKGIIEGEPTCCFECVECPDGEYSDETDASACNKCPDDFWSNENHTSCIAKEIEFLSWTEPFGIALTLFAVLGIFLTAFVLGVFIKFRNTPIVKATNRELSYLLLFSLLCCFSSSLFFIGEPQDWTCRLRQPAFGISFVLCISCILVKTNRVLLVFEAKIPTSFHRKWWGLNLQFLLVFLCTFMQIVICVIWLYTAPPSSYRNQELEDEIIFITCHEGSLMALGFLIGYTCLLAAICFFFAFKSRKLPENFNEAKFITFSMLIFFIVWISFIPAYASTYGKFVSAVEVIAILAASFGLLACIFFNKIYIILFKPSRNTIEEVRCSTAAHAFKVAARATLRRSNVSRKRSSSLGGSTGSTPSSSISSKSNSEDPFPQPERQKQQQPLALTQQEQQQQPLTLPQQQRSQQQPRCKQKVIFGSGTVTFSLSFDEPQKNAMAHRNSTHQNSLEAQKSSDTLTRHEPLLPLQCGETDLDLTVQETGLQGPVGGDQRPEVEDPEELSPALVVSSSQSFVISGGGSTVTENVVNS
Nature of the experiment: In-vitro assay of calcimimetics through modulation of calcium sensing receptor (CaSR): increase in intracellular calcium, FLIPR. Conditions: HEK293 cells expressing hCaSR; intracellular calcium (Fluo4NW, FLIPR); 0.3 mM CaCl2; 8-point assay; read-out: EC50 in range. Type of experiment: cell-based. How it is done:
In-Vitro Assay Method of Calcimemtics Through Modulation of Calcium Sensing Receptor (CaSR):
The ability of the compounds to modulate Calcium sensing receptor is determined by measuring an increase in intracellular calcium [Ca^2+i]. Stably transfected HEK293 cells expressing hCaSR_pTriEx-3 hygro vector are developed. Cells are grown overnight on a 96-well plate to 80% confluency in Ham's F12 containing 20% FBS at 37° C., 5% CO2 Subsequently, cells are washed extensively with 20 mM HEPES buffer containing 126 mM NaCl2, 1 mM MgCl2 and 4 mM KCl2 to remove serum components that might interfere with the assay. Cells are loaded with calcium sensing Fluo4NW dye in HEPES base buffer containing 0.1% BSA and 1 mg/ml glucose for 30 minutes to measure changes in intracellular calcium. The activities of the compounds are measured in FLIPR using 0.3 mM CaCl2 in 20 mM HEPES base buffer. The effectiveness of the compound to modulate receptor activity is determined by calculating the EC50 responses for that compound in an 8-point assay and plotted using GraphPad Prism 5.
The compounds prepared were tested using the above assay procedure and the results obtained are given below.
(Calcium flux is commonly read through the fluorescence of an indicator in the cells.)
With `C[C@@H](NCC1CN(Cc2ccc(F)cc2C(F)(F)F)C(=O)CO1)c1cccc2ccccc12` (stereo partly drawn) [Example 82, 4-(4-Fluoro-2-(trifluoromethyl)benzyl)-6-((((R)-1-(naphthalen-1-yl)ethyl)amino)methyl)morpholin-3-one hydrochloride], the EC50 was below 0.02 µM.
For `COc1cc([C@@H](C)NCC2CN(C3CCCC3)C(=O)CO2)ccc1F` (stereo partly drawn) [Example 96, 4-Cyclopentyl-6-((((R)-1-(4-fluoro-3-methoxyphenyl)ethyl)amino)methyl)morpholin-3-one hydrochloride] the value was 0.05 to 0.2 µM.
For `C[C@@H](NCCC1CN(c2ccc(C(F)(F)F)cc2)CCO1)c1cccc2ccccc12` (stereo partly drawn) [Example 105, (1R)-1-(Naphthalen-1-yl)-N-(2-(4-(4-(trifluoromethyl)phenyl)morpholin-2-yl)ethyl)ethanamine] the value was 0.02 to 0.05 µM; for `Cc1cccc(N2CCOCC2CN[C@H](C)c2cccc3ccccc23)c1` (stereo partly drawn) [Example 120, (1R)-1-(Naphthalen-1-yl)-N-((4-(m-tolyl)morpholin-3-yl)methyl)ethanamine hydrochloride], below 0.02 µM; for `COc1cccc([C@@H](C)NCC2CN(c3cccc(C)c3)CCO2)c1` (stereo partly drawn) [Example 134, (1R)-1-(3-Methoxyphenyl)-N-((4-(m-tolyl)morpholin-2-yl)methyl)ethanamine hydrochloride], below 0.02 µM.
Then `COc1cccc([C@@H](C)NCC2CN(c3ccc(F)c(F)c3)CCO2)c1` (stereo partly drawn) [Example 135, (1R)-N-((4-(3,4-Difluorophenyl)morpholin-2-yl)methyl)-1-(3-methoxyphenyl)ethanamine hydrochloride], with below 0.02 µM; and `C[C@@H](NCC1CN(c2ccc(C(=O)O)cc2)CCO1)c1cccc2ccccc12` (stereo partly drawn) [Example 147, 4-(2-((((R)-1-(Naphthalen-1-yl)ethyl)amino)methyl)morpholino)benzoic acid hydrochloride], with 0.05 to 0.2 µM.
With `C[C@@H](NCC1CN(c2cccc(F)c2)CCO1)c1cccc2ccccc12` (stereo partly drawn) [Example-3, (1R)-N-((4-(3-Fluorophenyl)morpholin-2-yl)methyl)-1-(naphthalen-1-yl)ethanamine hydrochloride], the EC50 was in the range of 0.02 to 0.05 µM.
For `C[C@@H](NCC1COCCN1c1cccc(F)c1)c1cccc2ccccc12` (stereo partly drawn) [Example-9] the value was below 0.02 µM; for `COc1cccc([C@@H](C)NCC2CN(c3ccc(OC)c(F)c3)C(=O)CO2)c1` (stereo partly drawn) [Example-50, 4-(3-Fluoro-4-methoxyphenyl)-6-((((R)-1-(3-methoxyphenyl)ethyl)amino)methyl)morpholin-3-one], 0.02 to 0.05 µM; for `COc1cccc([C@@H](C)NCC2COCCN2c2ccc(C)cc2)c1` (stereo partly drawn) [compound 8], 0.05 to 0.2 µM.
For `COc1cccc([C@@H](C)NCC2COCCN2c2ccc(F)c(F)c2)c1` (stereo partly drawn) [compound 12] the value was 0.05 to 0.2 µM.
`COc1cccc([C@@H](C)NCC2COCCN2c2cccc(F)c2)c1` (stereo partly drawn) [compound 15]: the EC50 fell in the range of 0.02 to 0.05 µM.
For `C[C@@H](NCC1COCCN1c1ccc(F)cc1)c1cccc2ccccc12` (stereo partly drawn) [compound 17] the value was 0.02 to 0.05 µM.
For `C[C@@H](NCC1CN(c2cccc(C(F)(F)F)c2)CCO1)c1cccc2ccccc12` (stereo partly drawn) [compound 22] the value was 0.02 to 0.05 µM.
As for `C[C@@H](NCC1CN(c2ccc(F)cc2)CCO1)c1cccc2ccccc12` (stereo partly drawn) [compound 28], the EC50 was below 0.02 µM.
On to `COc1cccc([C@@H](C)NCC2CN(c3ccccc3)CCO2)c1` (stereo partly drawn) [compound 32], for which the EC50 is 0.05 to 0.2 µM.
Then `C[C@@H](NCC1CN(c2cccc(F)c2F)C(=O)CO1)c1cccc2ccccc12` (stereo partly drawn) [compound 54, 4-(2,3-Difluorophenyl)-6-((((R)-1-(naphthalen-1-yl)ethyl)amino)methyl)morpholin-3-one hydrochloride], with below 0.02 µM; and `C[C@@H](NCC1CN(c2ccc3c(c2)OC(F)(F)O3)C(=O)CO1)c1cccc2ccccc12` (stereo partly drawn) [compound 59, 4-(2,2-Difluorobenzo[d][1,3]dioxol-5-yl)-6-((((R)-1-(naphthalen-1-yl)ethyl)amino)methyl)morpholin-3-one hydrochloride], with 0.02 to 0.05 µM.
Take `C[C@@H](NCC1CN(c2ccc(CC(=O)O)cc2)C(=O)CO1)c1cccc2ccccc12` (stereo partly drawn) [compound 60, 2-(4-(2-((((R)-1-(Naphthalen-1-yl)ethyl)amino)methyl)-5-oxomorpholino)phenyl)acetic acid hydrochloride]: the EC50 was 0.05 to 0.2 µM.
Then `COc1ccc(N2CC(CN[C@H](C)c3cccc4ccccc34)OCC2=O)cc1F` (stereo partly drawn) [compound 61, 4-(3-Fluoro-4-methoxyphenyl)-6-((((R)-1-(naphthalen-1-yl)ethyl)amino)methyl)morpholin-3-one hydrochloride], with below 0.02 µM.

As a reminder, the EC50 is the concentration giving half of the maximal effect.

(Values after patent US9382216B2, “Substituted morpholines as modulators for the calcium sensing receptor” (LUPIN LIMITED, priority 2011, dated 2016).)
